Measurements taken from patent US9029092B2, “Solution phase homogeneous assays” (Beckman Coulter, Inc., priority 2009, dated 2015).
“And” between values parts separate entries of the source, which are not always exact repeats. Identical values can stand only once.

Legend:
biotinylated HRP = assay: Model system for selection of SSIA (AK1/streptavidin BSA microparticles + biotinylated HRP); type: biochemical, horseradish; conditions: SSIA 100 μM final
Method in brief: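 Streptavidin/AK1/biotin-BSA M280 microparticles mixed with candidate SSIA (100 μM final) and Btn-HRP at 0, 1, 10, 100 or 250 ng/mL, with unlabeled HRP to 500 ng/mL total HRP. After 30 min at 37° C, trigger solution was added and light intensity recorded on a modified DxI analyzer.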

PSA = assay: Assay of PSA with dextran scaffold chemiluminescent-labeled sbp with and without SSIA; type: biochemical, human; conditions: ascorbic acid as SSIA
Description: In this example, one member of a specific binding pair of monoclonal antibodies for PSA is conjugated to a dextran molecule coupled with AK1, as described in Example 10 below, except the antibody is thiolated and covalently-linked to AK11-labeled and maleimide-activated dextran. A second monoclonal PSA antibody was conjugated to HRP, as described above and provided in an aqueous solution at either 0.5 μg/ml, 0.1 μg/ml or 0.03 μg/ml as indicated in the tables below. The assays were performed by placing 25 μl of sample in each of two reaction vessels. To the sample in the first reaction vessel, 25 μl of Ab1 solution, 25 μl of water, 25 μl of Ab2 solution was added and incubated for 15 minutes. […] Each sample was analyzed according to the above assay method in triplicate. […] A ratio of signal to noise (S/S0) was calculated at each concentration value. […] Samples of known concentration were prepared as described previously. Each sample was analyzed according to the above method in triplicate.

TnI = assay: Assays utilizing various SSIA in TnI assay; type: biochemical; conditions: for Signal/Noise S1/S0: calibrator S1; for Signal/Noise S2/S0: calibrator S2; for Signal/Noise S3/S0: calibrator S3; for Signal/Noise S4/S0: calibrator S4; for Signal/Noise S5/S0: calibrator S5; for Signal/Noise S6/S0: calibrator S6
Description: In a reaction tube, 400 uL of TnI M6 antibody-HRP conjugate at 0.5 ug/mL in buffered aqueous solution at pH. 8.0 (100 mM Tris, 150 mM NaCl, 0.1 mM EDTA, 0.2% Tween-20 and 1% BSA), 400 uL of AK1˜Dex70/31˜Streptavidin (fraction 1) 2:1 SA/Ab at 2 ug/mL Ab also in buffered aqueous solution at pH 8.0, and 400 uL of calibrator standard solution containing the TnI analyte at a known concentration. One tube was prepared for each calibrator concentration. […] Next, 25 uL of each antioxidant as a concentrated solution of 2 mM, 1 mM or 0.5 mM was pipetted into the plate wells using a repeater pipette. The plates were rotated for 10 seconds to mix and incubated between 5 to 33 minutes. Detection was performed with a SpectraMax L injection plate luminometer.

[1] = SSIA final concentration 125 uM
[2] = SSIA final concentration 250 uM
[3] = SSIA final concentration 500 uM

Q: Which results are given for `O=C1O[C@H]([C@@H](O)CO)C(O)=C1O` [Ascorbic Acid]?
A: light intensity, BTN-HRP0 (biotinylated HRP; Btn-HRP 0 ng/mL, total HRP 500 ng/mL): 97 and 151; S1/S0 (biotinylated HRP; Btn-HRP 1 ng/mL vs 0): 7.8 and 6.6; light intensity, BTN-HRP1 (biotinylated HRP; Btn-HRP 1 ng/mL, total HRP 500 ng/mL): 757 and 995; S2/S0 (biotinylated HRP; Btn-HRP 10 ng/mL vs 0): 171.6 and 216.2; light intensity, BTN-HRP10 (biotinylated HRP; Btn-HRP 10 ng/mL, total HRP 500 ng/mL): 16,641 and 32,568; S3/S0 (biotinylated HRP; Btn-HRP 100 ng/mL vs 0): 38064.9 and 30222.2; light intensity, BTN-HRP100 (biotinylated HRP; Btn-HRP 100 ng/mL, total HRP 500 ng/mL): 3,692,291 and 4,553,473; S4/S0 (biotinylated HRP; Btn-HRP 250 ng/mL vs 0): 62228.3 and 59176.1; light intensity, BTN-HRP250 (biotinylated HRP; Btn-HRP 250 ng/mL, total HRP 500 ng/mL): 6,036,145 and 8,915,869; effectiveness as SSIA in the model system (biotinylated HRP): demonstrating utility as SSIA; RLU, w/SSIA (PSA; PSA 0.0 ng/mL): 1756 RLU; S/S0, w/SSIA (PSA; PSA 0.0 ng/mL): 1.0; RLU, w/SSIA (PSA; PSA 0.4 ng/mL): 4393 RLU; S/S0, w/SSIA (PSA; PSA 0.4 ng/mL): 2.5; RLU, w/SSIA (PSA; PSA 7.0 ng/mL): 57119 RLU; S/S0, w/SSIA (PSA; PSA 7.0 ng/mL): 32.5; RLU, w/SSIA (PSA; PSA 101.6 ng/mL): 604024 RLU; S/S0, w/SSIA (PSA; PSA 101.6 ng/mL): 344.0; Signal/Noise S1/S0 (TnI; [1]): 1.4; Signal/Noise S1/S0 (TnI; [2]): 1.6; Signal/Noise S1/S0 (TnI; [3]): 1.3; Signal/Noise S2/S0 (TnI; [1]): 2.7; Signal/Noise S2/S0 (TnI; [2]): 2.6; Signal/Noise S2/S0 (TnI; [3]): 1.8; Signal/Noise S3/S0 (TnI; [1]): 8.5; Signal/Noise S3/S0 (TnI; [2]): 8.2; Signal/Noise S3/S0 (TnI; [3]): 5.1; Signal/Noise S4/S0 (TnI; [1]): 32.2; Signal/Noise S4/S0 (TnI; [2]): 28.7; Signal/Noise S4/S0 (TnI; [3]): 15.4; Signal/Noise S5/S0 (TnI; [1]): 228.0; Signal/Noise S5/S0 (TnI; [2]): 188.5; Signal/Noise S5/S0 (TnI; [3]): 87.5; Signal/Noise S6/S0 (TnI; [1]): 2196.3; Signal/Noise S6/S0 (TnI; [2]): 1511.1; Signal/Noise S6/S0 (TnI; [3]): 562.4
